In ChEMBL document CHEMBL1201862, “PubChem BioAssay data set” (2004):
Several values for one entry are separate records, joined by “and”; a condition that tells them apart may be missing. Identical values can stand only once.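 Grown in 96-well plates, cells were treated for 48 hours with each compound at five concentrations. Insufficient inhibition: endpoint recorded as highest concentration tested. GI50 marks 50% less growth.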 Activity calls are given as the source filed them. No stated cut-off is given here; in the data, active = GI50 up to about 1.1 µM and inactive = higher.

Experiments:
Test in all cases: inhibition of tumour cell growth, NCI panel, 48 h
[1] = test system: BT-549
[2] = test system: UACC-257
[3] = test system: PC-3
[4] = test system: SK-MEL-28
[5] = test system: IGROV-1
[6] = test system: SNB-19
[7] = test system: SF-268
[8] = test system: Malme-3M
[9] = test system: U-251
[10] = test system: HOP-62
[11] = test system: MDA-MB-231
[12] = test system: RXF 393
[13] = test system: K562
[14] = test system: HL-60
[15] = test system: MDA-MB-435
[16] = test system: SF-295
[17] = test system: HT-29
[18] = test system: SR
[19] = test system: MDA-N
[20] = test system: SW-620
[21] = test system: NCI/ADR-RES
[22] = test system: NCI-H23
[23] = test system: SN12C
[24] = test system: EKVX
[25] = test system: UACC-62
[26] = test system: HCT-116
[27] = test system: OVCAR-5
[28] = test system: OVCAR-4
[29] = test system: Hs-578T
[30] = test system: RPMI-8226
[31] = test system: COLO 205
[32] = test system: UO-31
[33] = test system: MCF7
[34] = test system: OVCAR-3
[35] = test system: DU-145
[36] = test system: LOX IMVI
[37] = test system: T47D
[38] = test system: TK-10
[39] = test system: NCI-H522
[40] = test system: A498
[41] = test system: MOLT-4
[42] = test system: SK-MEL-2
[43] = test system: HCC 2998
[44] = test system: NCI-H226
[45] = test system: NCI-H460
[46] = test system: ACHN
[47] = test system: HCT-15
[48] = test system: OVCAR-8
[49] = test system: SNB-75
[50] = test system: 786-0
[51] = test system: SK-MEL-5
[52] = test system: M14
[53] = test system: SF-539
[54] = test system: KM12
[55] = test system: CCRF-CEM
[56] = test system: CAKI-1
[57] = test system: SK-OV-3
[58] = test system: HOP-92
[59] = test system: A549

COc1ccc(-n2c(C)nc3ccc(NC4OCC(O)C(O)C4O)cc3c2=O)cc1 (stereo not given)
GI50 [1]: 74.5 µM (inactive)
GI50 [2]: > 100 µM (inactive)
GI50 [3]: > 100 µM (inactive)
GI50 [4]: 21.8 µM (inactive) and 32.1 µM (inactive)
GI50 [5]: > 100 µM (inactive) and 55.1 µM (inactive)
GI50 [6]: > 100 µM (inactive)
GI50 [7]: > 100 µM (inactive)
GI50 [8]: 57.7 µM (inactive) and 99.3 µM (inactive)
GI50 [9]: 60 µM (inactive) and 49.2 µM (inactive)
GI50 [10]: > 100 µM (inactive)
GI50 [11]: > 100 µM (inactive)
GI50 [12]: 22.7 µM (inactive) and 30.1 µM (inactive)
GI50 [13]: 31.3 µM (inactive) and 30.8 µM (inactive)
GI50 [14]: 26.4 µM (inactive) and 28.9 µM (inactive)
GI50 [15]: > 100 µM (inactive) and 82.8 µM (inactive)
GI50 [16]: > 100 µM (inactive)
GI50 [17]: 24 µM (inactive) and 25.6 µM (inactive)
GI50 [18]: 31.1 µM (inactive) and 26.1 µM (inactive)
GI50 [19]: 61.9 µM (inactive) and 62.4 µM (inactive)
GI50 [20]: 27.1 µM (inactive) and 36.5 µM (inactive)
GI50 [21]: 53.7 µM (inactive) and 83.6 µM (inactive)
GI50 [22]: 56.6 µM (inactive) and 38.3 µM (inactive)
GI50 [23]: 38.1 µM (inactive) and 27.2 µM (inactive)
GI50 [24]: > 100 µM (inactive)
GI50 [25]: 39.4 µM (inactive) and 31.9 µM (inactive)
GI50 [26]: 18.6 µM (inactive) and 19.4 µM (inactive)
GI50 [27]: > 100 µM (inactive)
GI50 [28]: > 100 µM (inactive)
GI50 [29]: 51.8 µM (inactive) and 41.8 µM (inactive)
GI50 [30]: 26.5 µM (inactive) and 20 µM (inactive)
GI50 [31]: 42.6 µM (inactive) and 83 µM (inactive)
GI50 [32]: > 100 µM (inactive)
GI50 [33]: 43.5 µM (inactive) and 48.4 µM (inactive)
GI50 [34]: > 100 µM (inactive)
GI50 [35]: > 100 µM (inactive)
GI50 [36]: 18.8 µM (inactive) and 22.5 µM (inactive)
GI50 [37]: > 100 µM (inactive)
GI50 [38]: > 100 µM (inactive)
GI50 [39]: 24.6 µM (inactive) and 22.3 µM (inactive)
GI50 [40]: > 100 µM (inactive)
GI50 [41]: 22.3 µM (inactive) and 31.5 µM (inactive)
GI50 [42]: > 100 µM (inactive)
GI50 [43]: > 100 µM (inactive)
GI50 [44]: 37.3 µM (inactive) and 37.6 µM (inactive)
GI50 [45]: 72.9 µM (inactive) and 40.5 µM (inactive)
GI50 [46]: 61.4 µM (inactive) and 36.6 µM (inactive)
GI50 [47]: 26.6 µM and 31.6 µM
GI50 [48]: 23.3 µM (inactive) and 28.6 µM (inactive)
GI50 [49]: > 100 µM (inactive)
GI50 [50]: 34 µM (inactive) and 30.5 µM (inactive)
GI50 [51]: > 100 µM (inactive)

Cc1nc2n(c1/C=C1/C(=O)Nc3cccc(Cl)c31)CCS2
GI50 [52]: > 100 µM (inactive)
GI50 [1]: 25.1 µM (inactive)
GI50 [2]: > 100 µM (inactive)
GI50 [3]: 38 µM (inactive)
GI50 [4]: > 100 µM (inactive)
GI50 [53]: 19 µM (inactive)
GI50 [5]: 48.8 µM (inactive)
GI50 [6]: 27.2 µM (inactive)
GI50 [7]: 19.5 µM (inactive)
GI50 [8]: 50.2 µM (inactive)
GI50 [9]: 17 µM (inactive)
GI50 [54]: > 100 µM (inactive)
GI50 [10]: 24 µM (inactive)
GI50 [11]: 18.7 µM (inactive)
GI50 [12]: 20.7 µM (inactive)
GI50 [13]: 20.3 µM (inactive)
GI50 [55]: 50.9 µM (inactive)
GI50 [14]: > 100 µM (inactive)
GI50 [15]: 33.5 µM (inactive)
GI50 [16]: 27.5 µM (inactive)
GI50 [17]: > 100 µM (inactive)
GI50 [18]: > 100 µM (inactive)
GI50 [19]: 57.9 µM (inactive)
GI50 [56]: 46.3 µM (inactive)
GI50 [20]: > 100 µM (inactive)
GI50 [21]: 31.1 µM (inactive)
GI50 [22]: 22 µM (inactive)
GI50 [23]: 25.1 µM (inactive)
GI50 [24]: 31.8 µM (inactive)
GI50 [25]: 33.6 µM (inactive)
GI50 [26]: 42.2 µM (inactive)
GI50 [27]: > 100 µM (inactive)
GI50 [29]: 22 µM (inactive)
GI50 [30]: > 100 µM (inactive)
GI50 [31]: > 100 µM (inactive)
GI50 [32]: 29.8 µM (inactive)
GI50 [33]: 14.2 µM (inactive)
GI50 [34]: > 100 µM (inactive)
GI50 [35]: 48.1 µM (inactive)
GI50 [36]: 81.7 µM (inactive)
GI50 [37]: 15.1 µM (inactive)
GI50 [57]: 16.7 µM (inactive)
GI50 [58]: 20.7 µM (inactive)
GI50 [38]: 37.7 µM (inactive)
GI50 [39]: 21.5 µM (inactive)
GI50 [40]: 30 µM (inactive)
GI50 [41]: 35.2 µM (inactive)
GI50 [42]: 17.1 µM (inactive)
GI50 [59]: 56.1 µM (inactive)
GI50 [43]: > 100 µM (inactive)
GI50 [45]: > 100 µM (inactive)
GI50 [46]: 31 µM (inactive)
GI50 [47]: 89.1 µM
GI50 [48]: 25.7 µM (inactive)
GI50 [49]: 17.5 µM (inactive)
GI50 [50]: 40 µM (inactive)
GI50 [51]: 55.1 µM (inactive)

COc1cc2ccc1OCc1cccc(n1)COc1ccc(cc1OC)/C=N\c1ccc(cc1)/N=C\2
GI50 [52]: > 100 µM (inactive)
GI50 [1]: > 100 µM (inactive)
GI50 [2]: > 100 µM (inactive)
GI50 [3]: > 100 µM (inactive)
GI50 [53]: > 100 µM (inactive)
GI50 [5]: > 100 µM (inactive)
GI50 [6]: > 100 µM (inactive)
GI50 [7]: > 100 µM (inactive)
GI50 [8]: > 100 µM (inactive)
GI50 [9]: > 100 µM (inactive)
GI50 [54]: > 100 µM (inactive)
GI50 [10]: > 100 µM (inactive)
GI50 [11]: > 100 µM (inactive)
GI50 [12]: > 100 µM (inactive)
GI50 [13]: > 100 µM (inactive)
GI50 [55]: > 100 µM (inactive)
GI50 [14]: > 100 µM (inactive)
GI50 [15]: > 100 µM (inactive)
GI50 [16]: > 100 µM (inactive)
GI50 [17]: > 100 µM (inactive)
GI50 [18]: > 100 µM (inactive)
GI50 [19]: > 100 µM (inactive)
GI50 [56]: > 100 µM (inactive)
GI50 [20]: > 100 µM (inactive)
GI50 [21]: > 100 µM (inactive)
GI50 [22]: > 100 µM (inactive)
GI50 [23]: > 100 µM (inactive)
GI50 [24]: > 100 µM (inactive)
GI50 [25]: > 100 µM (inactive)
GI50 [26]: > 100 µM (inactive)
GI50 [27]: > 100 µM (inactive)
GI50 [28]: > 100 µM (inactive)
GI50 [29]: 54.2 µM (inactive)
GI50 [31]: > 100 µM (inactive)
GI50 [32]: > 100 µM (inactive)
GI50 [33]: > 100 µM (inactive)
GI50 [34]: > 100 µM (inactive)
GI50 [35]: > 100 µM (inactive)
GI50 [36]: > 100 µM (inactive)
GI50 [37]: > 100 µM (inactive)
GI50 [57]: > 100 µM (inactive)
GI50 [58]: > 100 µM (inactive)
GI50 [38]: > 100 µM (inactive)
GI50 [39]: > 100 µM (inactive)
GI50 [40]: > 100 µM (inactive)
GI50 [41]: > 100 µM (inactive)
GI50 [42]: > 100 µM (inactive)
GI50 [59]: > 100 µM (inactive)
GI50 [43]: > 100 µM (inactive)
GI50 [44]: > 100 µM (inactive)
GI50 [45]: > 100 µM (inactive)
GI50 [46]: > 100 µM (inactive)
GI50 [47]: > 100 µM
GI50 [48]: > 100 µM (inactive)
GI50 [49]: > 100 µM (inactive)
GI50 [50]: > 100 µM (inactive)
GI50 [51]: > 100 µM (inactive)
